Data set [1] relates to tail bleeding time in mice. The data set can be described thus: Tail bleeding time. The class given is in vivo. Conditions: same concentrations that inhibit occlusive thrombosis.
The nature of data set [2]: in vivo. The conditions noted are these: male, rat, iv.
The nature of data set [3]: Rat 5-day infusion pharmacokinetic study. The conditions noted are these: for AUC(0-t) / Tmax / clearance: plasma; for Css: steady-state plasma concentration during continuous IV infusion; for λz: terminal elimination rate constant.
Data set [4] can be described thus: Dissolution and storage stability of lyophilized powder. The format is physicochemical. Here is the method:
The M3mP6 HLPN thus generated achieves a high M3mP6 peptide loading reaching >80% of total nanoparticle (mol/mol) (when such percentage of peptide was incorporated into during the process) and a high peptide concentration of >10 mM in injectable suspension. As analyzed by dynamic light scattering (DLS), the vast majority (99.8-100%) of these lipid-stabilized, PEG-coated M3mP6 HLPN have a particle size ranging between 6 nm to 25 nm (in different preparations) with occasional appearance of very small populations (0-0.2%) with larger diameters (~50-500 nm) (FIGS. 5A-5F).

The subject of data set [5] is laser-induced cremaster arteriolar thrombosis. The data set is described as follows: Laser-induced cremaster arteriolar thrombosis model. The format is in vivo, mice. Conditions: laser-induced mouse cremaster arterial thrombosis model; for intravascular coagulation (fibrin clot formation / fibrin deposition): site of vascular injury. From the text:
This example illustrates the comparative effect of M3mP6 HLPN (prepared substantially as described in Example 1) and cangrelor on intracvascular coagulation using laser-induced cremaster arteriolar thrombosis model in mice.
It was recently shown that outside-in signaling plays an important role in not only platelet thrombus formation but also intravascular coagulation under flow shear, an important aspect of thrombosis. […] Thus, we tested the effect of M3mP6 HLPN generated by vortex-mixing-lyophilization on platelet thrombus formation and intravascular coagulation in comparison with cangrelor using the laser-induced cremaster arterial thrombosis model.

Structures are written as SMILES. Residues, ends and D or L forms follow the SMILES beside them. *: point of attachment. Myristoyl = CCCCCCCCCCCCCC(=O)*

The half-life is the time in which the quantity being followed falls by half. Low values mean fast loss, high ones slow loss. Usually Vd stands for a proportionality between amount in the body and measured concentration, not a real space. A higher Vd goes with wide distribution into tissue. In general, AUC(0-t) refers to exposure summed from dosing to a finite time, without extrapolation to infinity. Read a high AUC(0-t) as more exposure. For orientation: Tmax means the time from dosing to the highest level. By clearance is commonly meant the rate of elimination divided by the concentration.

`CCCCCCCCCCCCCC(=O)N[C@@H](Cc1ccccc1)C(=O)N[C@@H](CCC(=O)O)C(=O)N[C@@H](CCC(=O)O)C(=O)N[C@@H](CCC(=O)O)C(=O)N[C@@H](CCCNC(=N)N)C(=O)N[C@@H](CC(C)C)C(=O)O` [M3mP6, Myr-FEEERL (SEQ ID NO: 8)] (Myristoyl-FEEERL-OH; C-terminus assumed): the tail bleeding time entry in data set [1] was “without affecting bleeding”. In data set [2], this molecule showed a half-life of 234 min. Besides, the Vd in data set [3] (female, in vivo, iv) was 0.2 L/kg. Also, the AUC(0-t) in data set [3] (female, intravenous) is 17600 µg·h/mL; in data set [3] (male, intravenous) it was 9490 µg·h/mL. The Tmax in data set [3] (female, intravenous) stood at 4.8 min; in data set [3] (male, intravenous), 4.8 min. The clearance was 0.7 mL/min/kg in data set [3] (female, iv, CL CLAUC, clearance estimated from AUC0-∞); 0.8 mL/min/kg in data set [3] (female, iv, CL CLcss, clearance estimated from Css); 1.4 mL/min/kg in data set [3] (male, intravenous, CL CLAUC, clearance estimated from AUC0-∞); 1.3 mL/min/kg in data set [3] (male, iv, CL CLcss, clearance estimated from Css). Also, the Css was 131.117 µg/mL in data set [3] (female) and 77.621 µg/mL in data set [3] (male). Further, in data set [3] (female, terminal elimination half-life), the t1/2-λz was found to be 186 min. In addition, the λz in data set [3] (female) came to 0.223 h⁻¹; in data set [3] (male) it was 0.177 h⁻¹. This molecule also returned a Vλz in data set [3] (male, distribution volume) of 0.46 L/kg. In data set [4] (lyophilized powder at room temperature (22° C.)), the storage stability entry was “at least 2 weeks”. Moreover, the “storage stability (similar DLS profile and pharmacological effect)” value in data set [4] (lyophilized powder stored at −20° C.) was “more than 18 months”.

Consider `CSCCNc1nc(SCCC(F)(F)F)nc2c1ncn2[C@@H]1O[C@H](COP(=O)(O)OP(=O)(O)C(Cl)(Cl)P(=O)(O)O)[C@@H](O)[C@H]1O` [cangrelor], for which the platelet thrombus formation result in data set [5] is “similarly potent effects”; in data set [5] (listed as Cangrelor) it was “similarly inhibited”. Besides, the “intravascular coagulation (fibrin clot formation / fibrin deposition)” value is “moderate effect” in data set [5] and “only partially inhibited” in data set [5] (listed as Cangrelor).

Source of the values: US12721820B2, “Method of manufacturing peptide nanoparticles” (DuPage Medical Technology, Inc., priority 2020, dated 2026).
